# Inconclusive results and toxic doses are left out.
# System: L1210 leukemia ip in BDF1 mice, survival T/C
# Assay: NCI In Vivo Anticancer Drug Screen. Data for tumor model L1210 Leukemia (intraperitoneal) in B6D2F1 (BDF1) mice
# Conditions: endpoint: mean survival time, higher = longer survival
# How it was run: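 Mice bearing the transplanted tumor received compound or vehicle. Survival of the treated group was divided by that of the vehicle-treated control group to give the ratio.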
# [1] = dose: 100.0 mg/kg/injection, schedule: Q01DX001 (ip), vehicle: other
# [2] = dose: 200.0 mg/kg/injection, schedule: Q01DX001 (ip), vehicle: other
# [3] = dose: 400.0 mg/kg/injection, schedule: Q01DX001 (ip), vehicle: other
# [4] = dose: 100.0 mg/kg/injection, schedule: Q04DX002 (ip), vehicle: saline with Tween-80
# [5] = dose: 100.0 mg/kg/injection, schedule: Q04DX003 (ip), vehicle: Klucel (hydroxypropylcellulose) (HPC)
# [6] = dose: 200.0 mg/kg/injection, schedule: Q04DX002 (ip), vehicle: saline with Tween-80
# [7] = dose: 200.0 mg/kg/injection, schedule: Q04DX003 (ip), vehicle: Klucel (hydroxypropylcellulose) (HPC)
# [8] = dose: 400.0 mg/kg/injection, schedule: Q04DX003 (ip), vehicle: Klucel (hydroxypropylcellulose) (HPC)
# [9] = dose: 100.0 mg/kg/injection, schedule: Q01DX009 (ip), vehicle: saline
# [10] = dose: 200.0 mg/kg/injection, schedule: Q01DX009 (ip), vehicle: saline
# [11] = dose: 100.0 mg/kg/injection, schedule: Q01DX009 (ip), vehicle: saline with Tween-80
# [12] = dose: 200.0 mg/kg/injection, schedule: Q01DX009 (ip), vehicle: saline with Tween-80
# [13] = dose: 400.0 mg/kg/injection, schedule: Q01DX009 (ip), vehicle: saline with Tween-80
# [14] = dose: 100.0 mg/kg/injection, schedule: Q01DX001 (ip), vehicle: saline
# [15] = dose: 100.0 mg/kg/injection, schedule: Q04DX002 (ip), vehicle: Klucel (hydroxypropylcellulose) (HPC)
# [16] = dose: 200.0 mg/kg/injection, schedule: Q04DX002 (ip), vehicle: Klucel (hydroxypropylcellulose) (HPC)
# [17] = dose: 400.0 mg/kg/injection, schedule: Q04DX002 (ip), vehicle: Klucel (hydroxypropylcellulose) (HPC)
# [18] = dose: 100.0 mg/kg/injection, schedule: Q01DX009 (ip), vehicle: Klucel (hydroxypropylcellulose) (HPC)
# [19] = dose: 200.0 mg/kg/injection, schedule: Q01DX009 (ip), vehicle: Klucel (hydroxypropylcellulose) (HPC)
# [20] = dose: 400.0 mg/kg/injection, schedule: Q01DX001 (ip), vehicle: saline
smiles,measurement,setting,value
Cc1c(C(C)c2[nH]c3ccccc3c2C)[nH]c2ccccc12,T/C,"dose: 50.0 mg/kg/injection, schedule: Q01DX001 (ip), vehicle: other",98 % of control
same,T/C,[1],102 % of control
same,T/C,[2],91 % of control
same,T/C,[3],93 % of control
CCN=C(c1ccc(NC(=O)c2ccc(C(=O)Nc3ccc(C(=NCC)N(CC)C(=O)NCCCl)cc3)cc2)cc1)N(CC)C(=O)NCCCl,T/C,"dose: 3.75 mg/kg/injection, schedule: Q01DX015 (ip), vehicle: methylcellulose (MC)",107 % of control
same,T/C,"dose: 7.5 mg/kg/injection, schedule: Q01DX015 (ip), vehicle: methylcellulose (MC)",113 % of control
O=[N+]([O-])c1cccc([I+]c2cccc([N+](=O)[O-])c2)c1,T/C,[4],100 % of control
same,T/C,[5],96 % of control
same,T/C,[6],92 % of control
same,T/C,[7],104 % of control
same,T/C,"dose: 400.0 mg/kg/injection, schedule: Q04DX002 (ip), vehicle: saline with Tween-80",100 % of control
same,T/C,[8],91 % of control
COc1ccc(C(O)(CNCc2ccccc2)c2ccccc2)cc1 (configuration not stated),T/C,"dose: 100.0 mg/kg/injection, schedule: Q01DX001 (ip), vehicle: saline with Tween-80",97 % of control
CC(O)(C#N)C(F)(F)F (configuration not stated),T/C,"dose: 75.0 mg/kg/injection, schedule: Q01DX001 (ip), vehicle: saline",102 % of control
same,T/C,"dose: 150.0 mg/kg/injection, schedule: Q01DX001 (ip), vehicle: saline",91 % of control
same,T/C,"dose: 300.0 mg/kg/injection, schedule: Q01DX001 (ip), vehicle: saline",105 % of control
OCC1OCC(O)C(O)C1O (configuration not stated),T/C,"dose: 50.0 mg/kg/injection, schedule: Q01DX009 (ip), vehicle: saline",94 % of control
same,T/C,[9],91 % of control
same,T/C,[10],88 % of control
CC(C)CC(C)N (configuration not stated),T/C,"dose: 50.0 mg/kg/injection, schedule: Q04DX003 (ip), vehicle: Klucel (hydroxypropylcellulose) (HPC)",93 % of control
same,T/C,[5],100 % of control
same,T/C,[7],96 % of control
O=C(Nc1cccc(C(F)(F)F)c1)Nc1cccc2c1C(=O)c1ccccc1C2=O,T/C,[11],88 % of control
same,T/C,[12],87 % of control
CC(=O)c1ccc(C(=O)O)cc1,T/C,"dose: 50.0 mg/kg/injection, schedule: Q01DX009 (ip), vehicle: saline with Tween-80",87 % of control
same,T/C,[11],115 % of control
same,T/C,[12],94 % of control
CCCCCCCCCCCCCCCCCC(=O)N1C(=O)c2ccccc2C1=O,T/C,[1],87 % of control
same,T/C,[2],88 % of control
same,T/C,[3],92 % of control
CC(C(=O)c1ccccc1)C(Cl)c1ccccc1 (configuration not stated),T/C,[11],102 % of control
same,T/C,"dose: 100.0 mg/kg/injection, schedule: Q04DX003 (ip), vehicle: saline with Tween-80",104 % of control
same,T/C,[12],106 % of control
same,T/C,"dose: 200.0 mg/kg/injection, schedule: Q04DX003 (ip), vehicle: saline with Tween-80",107 % of control
same,T/C,[13],102 % of control
same,T/C,"dose: 400.0 mg/kg/injection, schedule: Q04DX003 (ip), vehicle: saline with Tween-80",104 % of control
COc1cc(Br)c2c(c1OC)C1(CC[N+](C)(C)C)CC(=O)CCC1CC2 (configuration not stated),T/C,"dose: 12.5 mg/kg/injection, schedule: Q01DX001 (ip), vehicle: saline",97 % of control
same,T/C,"dose: 25.0 mg/kg/injection, schedule: Q01DX001 (ip), vehicle: saline",97 % of control
same,T/C,"dose: 50.0 mg/kg/injection, schedule: Q01DX001 (ip), vehicle: saline",94 % of control
same,T/C,[14],97 % of control
c1ccc(-c2cc(-c3ccccc3)[o+]c(-c3ccccc3)c2)cc1,T/C,[15],93 % of control
same,T/C,[16],96 % of control
same,T/C,[17],90 % of control
CCCCCCCCCCCCCC1=NCCN1CCO,T/C,"dose: 5.0 mg/kg/injection, schedule: Q01DX009 (ip), vehicle: saline",94 % of control
same,T/C,"dose: 10.0 mg/kg/injection, schedule: Q01DX009 (ip), vehicle: saline",96 % of control
same,T/C,"dose: 20.0 mg/kg/injection, schedule: Q01DX009 (ip), vehicle: saline",86 % of control
COc1ccccc1NC(=O)NCCN1CCCC1,T/C,[18],98 % of control
same,T/C,[19],98 % of control
O=S(=O)(O)NC1CCCCC1,T/C,"dose: 25.0 mg/kg/injection, schedule: Q01DX009 (ip), vehicle: acetone",100 % of control
same,T/C,"dose: 50.0 mg/kg/injection, schedule: Q01DX009 (ip), vehicle: acetone",100 % of control
same,T/C,"dose: 100.0 mg/kg/injection, schedule: Q01DX009 (ip), vehicle: acetone",100 % of control
same,T/C,[20],95 % of control
same,T/C,"dose: 800.0 mg/kg/injection, schedule: Q01DX001 (ip), vehicle: saline",90 % of control
same,T/C,"dose: 1200.0 mg/kg/injection, schedule: Q01DX001 (ip), vehicle: saline",86 % of control
same,T/C,"dose: 1600.0 mg/kg/injection, schedule: Q01DX001 (ip), vehicle: saline",92 % of control
CCN(CC)c1ccc(NCN2C(=O)c3ccccc3C2=O)c(C)c1,T/C,[4],97 % of control
same,T/C,[6],111 % of control
CCOC(=O)C1C(C(=O)c2ccc(C)cc2)C2(Cl)C(Cl)=C(Cl)C1(Cl)C2(Cl)Cl (configuration not stated),T/C,[9],96 % of control
same,T/C,[10],91 % of control
same,T/C,"dose: 400.0 mg/kg/injection, schedule: Q01DX009 (ip), vehicle: saline",98 % of control
N/C(=N\O)c1nn(C2OC(CO)C(O)C2O)c2ncnc(N)c12 (configuration not stated),T/C,"dose: 25.0 mg/kg/injection, schedule: Q01DX005 (ip), vehicle: saline",171 % of control
CCCCCCCCSSCCCCCCCC,T/C,[11],97 % of control
same,T/C,"dose: 100.0 mg/kg/injection, schedule: Q04DX003 (ip), vehicle: saline",95 % of control
same,T/C,[12],95 % of control
same,T/C,"dose: 200.0 mg/kg/injection, schedule: Q04DX003 (ip), vehicle: saline",98 % of control
same,T/C,[13],91 % of control
same,T/C,"dose: 400.0 mg/kg/injection, schedule: Q04DX003 (ip), vehicle: saline",95 % of control
CCCCCCCCCCCCOC(=O)c1cc(O)c(O)c(O)c1,T/C,"dose: 75.0 mg/kg/injection, schedule: Q01DX001 (ip), vehicle: acetone",103 % of control
Nc1cc(Cl)cc2c1nc(NCCO)c1ccccc12,T/C,[5],97 % of control
same,T/C,[7],90 % of control
same,T/C,[8],98 % of control
CCN(CC)CC,T/C,[15],98 % of control
same,T/C,[16],109 % of control
same,T/C,[17],103 % of control
CC(C)=CCOc1ccc(C(=O)O)cc1,T/C,[14],100 % of control
same,T/C,"dose: 200.0 mg/kg/injection, schedule: Q01DX001 (ip), vehicle: saline",116 % of control
same,T/C,[20],107 % of control
O=C(OC1CCC1)c1ccc(N=Nc2ccccc2)cc1,T/C,"dose: 75.0 mg/kg/injection, schedule: Q04DX002 (ip), vehicle: Klucel (hydroxypropylcellulose) (HPC)",102 % of control
same,T/C,"dose: 150.0 mg/kg/injection, schedule: Q04DX002 (ip), vehicle: Klucel (hydroxypropylcellulose) (HPC)",102 % of control
same,T/C,"dose: 300.0 mg/kg/injection, schedule: Q04DX002 (ip), vehicle: Klucel (hydroxypropylcellulose) (HPC)",86 % of control
CCCCCCCCCCCCC#N,T/C,[18],111 % of control
same,T/C,[5],110 % of control
same,T/C,[19],119 % of control
same,T/C,[7],113 % of control
same,T/C,"dose: 400.0 mg/kg/injection, schedule: Q01DX009 (ip), vehicle: Klucel (hydroxypropylcellulose) (HPC)",100 % of control
same,T/C,[8],117 % of control
OC1CCCC[CH]1[Hg][Cl] (configuration not stated),T/C,"dose: 5.0 mg/kg/injection, schedule: Q01DX001 (ip), vehicle: saline",95 % of control
O=NN(CCCN(N=O)C(=O)Nc1c[nH]c(=O)[nH]c1=O)C(=O)Nc1c[nH]c(=O)[nH]c1=O,T/C,"dose: 50.0 mg/kg/injection, schedule: Q01DX Z (ip), vehicle: carboxymethylcellulose (CMC)",110 % of control
same,T/C,"dose: 75.0 mg/kg/injection, schedule: Q01DX Z (ip), vehicle: carboxymethylcellulose (CMC)",110 % of control
same,T/C,"dose: 100.0 mg/kg/injection, schedule: Q01DX Z (ip), vehicle: carboxymethylcellulose (CMC)",115 % of control
same,T/C,"dose: 150.0 mg/kg/injection, schedule: Q01DX Z (ip), vehicle: carboxymethylcellulose (CMC)",111 % of control
same,T/C,"dose: 200.0 mg/kg/injection, schedule: Q01DX Z (ip), vehicle: carboxymethylcellulose (CMC)",119 % of control

# Source: PubChem BioAssay AID248 (DTP/NCI, 2004)
